molecular target: T1, human PAH with the R408W mutation (Homo sapiens, UniProt P00439, R408W); test: Cell Based Phenylalanine Flux Assay; conditions: A375 cells expressing human R408W PAH; 24 hrs compound incubation; 13C-Tyrosine by LC-MS; average where tested multiple times; read-out: AC50
T1 construct: expressed in transfected cells
T1 sequence (P00439 1-452 R408W): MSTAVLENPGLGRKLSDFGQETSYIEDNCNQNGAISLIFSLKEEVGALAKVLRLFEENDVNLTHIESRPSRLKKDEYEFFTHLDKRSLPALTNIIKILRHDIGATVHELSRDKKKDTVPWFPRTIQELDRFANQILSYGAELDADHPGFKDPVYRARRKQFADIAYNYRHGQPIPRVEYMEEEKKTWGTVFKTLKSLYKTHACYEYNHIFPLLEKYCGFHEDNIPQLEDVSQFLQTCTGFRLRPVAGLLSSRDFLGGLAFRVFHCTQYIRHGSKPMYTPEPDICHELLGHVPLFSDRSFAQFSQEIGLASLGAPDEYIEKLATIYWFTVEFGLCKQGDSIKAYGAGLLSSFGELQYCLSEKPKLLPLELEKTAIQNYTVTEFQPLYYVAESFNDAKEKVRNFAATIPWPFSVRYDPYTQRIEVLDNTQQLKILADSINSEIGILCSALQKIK

| SMILES | AC50 |
| --- | --- |
| O=C(c1cnn2ccccc12)N1CCc2[nH]cnc2[C@H]1c1nc2cccc(F)c2s1 [Example 1109, (S)-(4-(7-fluorobenzo[d]thiazol-2-yl)-6,7-dihydro-1H-imidazo[4,5-c]pyridin-5(4H)-yl)(pyrazolo[1,5-a]pyridin-3-yl)methanone] | 0.5 to 1 µM |
| O=C(c1cnn2ccccc12)N1CCc2[nH]cnc2[C@@H]1c1nc2cccc(F)c2s1 [Example 1110, (R)-(4-(7-fluorobenzo[d]thiazol-2-yl)-6,7-dihydro-1H-imidazo[4,5-c]pyridin-5(4H)-yl)(pyrazolo[1,5-a]pyridin-3-yl)methanone] | 0.5 to 1 µM |
| O=C(c1cnn2ccccc12)N1CCc2nc[nH]c2[C@H]1c1nc2c(F)cccc2s1 [Example 1111, (S)-(4-(4-fluorobenzo[d]thiazol-2-yl)-6,7-dihydro-3H-imidazo[4,5-c]pyridin-5(4H)-yl)(pyrazolo[1,5-a]pyridin-3-yl)methanone] | 0.5 to 1 µM |
| O=C(c1cnn2ccccc12)N1CCc2nc[nH]c2[C@@H]1c1nc2c(F)cccc2s1 [Example 1112, (R)-(4-(4-fluorobenzo[d]thiazol-2-yl)-6,7-dihydro-3H-imidazo[4,5-c]pyridin-5(4H)-yl)(pyrazolo[1,5-a]pyridin-3-yl)methanone] | 1 to 5 µM |
| O=C(CCC1CC1)N1CCc2nc[nH]c2[C@H]1c1nc2c(F)cccc2s1 [Example 1113, (S)-3-cyclopropyl-1-(4-(4-fluorobenzo[d]thiazol-2-yl)-6,7-dihydro-3H-imidazo[4,5-c]pyridin-5(4H)-yl)propan-1-one] | 1 to 5 µM |
| O=C(CCC1CC1)N1CCc2nc[nH]c2[C@@H]1c1nc2c(F)cccc2s1 [Example 1114, (R)-3-cyclopropyl-1-(4-(4-fluorobenzo[d]thiazol-2-yl)-6,7-dihydro-3H-imidazo[4,5-c]pyridin-5(4H)-yl)propan-1-one] | > 5 µM |
| CCc1nnc(CCC(=O)N2CCc3[nH]cnc3[C@H]2c2nc3ccccc3s2)s1 [Example 1115] | 0.5 to 1 µM |
| O=C(CC1CC1)N1CCc2[nH]cnc2[C@H]1c1nc2ccc(F)cc2s1 [Example 1117, (S)-2-cyclopropyl-1-(4-(6-fluorobenzo[d]thiazol-2-yl)-6,7-dihydro-1H-imidazo[4,5-c]pyridin-5(4H)-yl)ethanone] | < 0.5 µM |
| O=C(CC1CC1)N1CCc2[nH]cnc2[C@@H]1c1nc2ccc(F)cc2s1 [Example 1118, (R)-2-cyclopropyl-1-(4-(6-fluorobenzo[d]thiazol-2-yl)-6,7-dihydro-1H-imidazo[4,5-c]pyridin-5(4H)-yl)ethanone] | > 5 µM |

More lines, now with the values ahead:

| AC50 | SMILES |
| --- | --- |
| > 5 µM | CCc1nnc(CCC(=O)N2CCc3[nH]cnc3[C@@H]2c2nc3ccccc3s2)s1 [Example 1116, (R)-1-(4-(benzo[d]thiazol-2-yl)-6,7-dihydro-1H-imidazo[4,5-c]pyridin-5(4H)-yl)-3-(5-ethyl-1,3,4-thiadiazol-2-yl)propan-1-one] |
| 1 to 5 µM | O=C(c1nccs1)N1CCc2nc[nH]c2[C@@H]1c1nc2c(F)cccc2s1 [Example 1119, (R)-(4-(4-fluorobenzo[d]thiazol-2-yl)-6,7-dihydro-3H-imidazo[4,5-c]pyridin-5(4H)-yl)(thiazol-2-yl)methanone] |
| 0.5 to 1 µM | O=C(c1nccs1)N1CCc2nc[nH]c2[C@H]1c1nc2c(F)cccc2s1 [Example 1120, (S)-(4-(4-fluorobenzo[d]thiazol-2-yl)-6,7-dihydro-3H-imidazo[4,5-c]pyridin-5(4H)-yl)(thiazol-2-yl)methanone] |
| 0.5 to 1 µM | O=C(CCc1nccs1)N1CCc2[nH]cnc2[C@H]1c1nc2cccc(Br)c2s1 [Example 1121, (S)-1-(4-(7-bromobenzo[d]thiazol-2-yl)-6,7-dihydro-1H-imidazo[4,5-c]pyridin-5(4H)-yl)-3-(thiazol-2-yl)propan-1-one] |
| 1 to 5 µM | O=C(CCc1nccs1)N1CCc2[nH]cnc2[C@@H]1c1nc2cccc(Br)c2s1 [Example 1122, (R)-1-(4-(7-bromobenzo[d]thiazol-2-yl)-6,7-dihydro-1H-imidazo[4,5-c]pyridin-5(4H)-yl)-3-(thiazol-2-yl)propan-1-one] |

From patent US20250171438A1 (Agios Pharmaceuticals, Inc., priority 2022, published 2025)
